Measurements as given in ChEMBL document CHEMBL1147820, “Enhanced pharmacokinetic properties of 1,4-benzodiazepine-2,5-dione antagonists of the HDM2-p53 protein-protein interaction through structure-based drug design” (Bioorg Med Chem Lett, 2006).

What was measured:
[1] = Half life in mouse at 5 mg/kg, iv; format: ADME, organism-based; set-up: dose 5 mg/kg, route intravenous; conditions: in vivo
[2] = Clearance in mouse at 5 mg/kg, iv; format: ADME, organism-based; set-up: dose 5 mg/kg, route intravenous; conditions: in vivo
[3] = Volume of distribution in mouse at 5 mg/kg, iv; format: ADME, organism-based; set-up: dose 5 mg/kg, route intravenous; conditions: in vivo, read-out: Vdss
[4] = Cmax in mouse at 40 mg/kg, po; format: ADME, organism-based; set-up: dose 40 mg/kg, route oral; conditions: in vivo
[5] = Tmax in mouse at 40 mg/kg, po; format: ADME, organism-based; set-up: dose 40 mg/kg, route oral; conditions: in vivo
[6] = Half life in mouse at 40 mg/kg, po; format: ADME, organism-based; set-up: dose 40 mg/kg, route oral; conditions: in vivo
[7] = Bioavailability in mouse; format: ADME, organism-based; conditions: in vivo
in vitro [8] = conditions: human, Caco-2
in vitro [9] = conditions: human, Caco-2; remark: listed apart in the source

Row | Structure (SMILES) | half-life [1] | clearance [2] | Vd [3] | Cmax [4] | Tmax [5] | half-life [6] | bioavailability [7] | Papp A→B (in vitro [8]) | Papp B→A (in vitro [9])
1 | C[C@H](c1ccc(Cl)cc1)N1C(=O)c2cc(I)ccc2N(CCCCC(=O)O)C(=O)[C@@H]1c1ccc(Cl)cc1 | 186 min | 13.2 mL/min/kg | 3 L/kg | 6.3 µM | 6 h | 150 min | 100% | 7.34 ×10⁻⁶ cm/s | 13 ×10⁻⁶ cm/s
2 | CC#Cc1ccc2c(c1)C(=O)N([C@H](C)c1ccc(Cl)cc1)[C@@H](c1ccc(Cl)cc1)C(=O)N2CCCCC(=O)O | – | – | – | – | – | – | – | 19.9 ×10⁻⁶ cm/s | 9.1 ×10⁻⁶ cm/s
3 | C#Cc1ccc2c(c1)C(=O)N([C@H](C)c1ccc(Cl)cc1)[C@@H](c1ccc(Cl)cc1)C(=O)N2CCCCC(=O)O | – | – | – | – | – | – | – | 20.9 ×10⁻⁶ cm/s | 16.1 ×10⁻⁶ cm/s
